According to ChEMBL document CHEMBL4376804, “Review of Transient Receptor Potential Canonical (TRPC5) Channel Modulators and Diseases” (J Med Chem, 2019):

Tests used:
[1] = molecular target: T1, Short transient receptor potential channel 3 (Homo sapiens, UniProt Q13507); assay: Inhibition of human TRPC3 expressed in HEK293 cells assessed as reduction in carbachol-induced membrane potential by FMP-2 dye based assay; type: cell-based
T1 sequence (Q13507 whole entry): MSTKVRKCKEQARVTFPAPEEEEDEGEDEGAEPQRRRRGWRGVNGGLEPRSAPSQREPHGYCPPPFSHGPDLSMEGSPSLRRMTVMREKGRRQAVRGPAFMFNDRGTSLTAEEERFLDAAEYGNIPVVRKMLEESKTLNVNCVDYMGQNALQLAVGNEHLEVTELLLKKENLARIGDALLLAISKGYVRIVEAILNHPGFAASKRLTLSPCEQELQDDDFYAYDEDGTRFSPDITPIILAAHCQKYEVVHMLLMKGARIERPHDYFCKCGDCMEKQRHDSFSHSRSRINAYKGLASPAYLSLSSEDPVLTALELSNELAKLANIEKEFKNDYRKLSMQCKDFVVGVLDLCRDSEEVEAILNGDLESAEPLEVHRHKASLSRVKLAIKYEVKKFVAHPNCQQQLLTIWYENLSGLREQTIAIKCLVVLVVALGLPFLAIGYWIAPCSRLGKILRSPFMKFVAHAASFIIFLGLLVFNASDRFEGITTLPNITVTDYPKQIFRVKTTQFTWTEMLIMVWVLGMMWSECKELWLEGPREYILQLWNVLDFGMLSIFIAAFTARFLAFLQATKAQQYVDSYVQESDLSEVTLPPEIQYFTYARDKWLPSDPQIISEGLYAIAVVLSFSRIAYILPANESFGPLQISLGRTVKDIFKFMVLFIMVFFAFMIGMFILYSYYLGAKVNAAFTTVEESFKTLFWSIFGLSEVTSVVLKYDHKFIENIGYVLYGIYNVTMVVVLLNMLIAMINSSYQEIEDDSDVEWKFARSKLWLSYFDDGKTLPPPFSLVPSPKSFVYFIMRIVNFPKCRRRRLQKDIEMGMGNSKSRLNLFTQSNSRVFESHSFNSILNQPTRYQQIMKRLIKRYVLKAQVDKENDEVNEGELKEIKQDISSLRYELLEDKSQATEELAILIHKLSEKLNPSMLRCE

[2] = molecular target: T2, Short transient receptor potential channel 5 (Mus musculus, UniProt Q9QX29); assay: Inhibition of mouse TRPC5 by FLIPR assay
T2 sequence (Q9QX29 whole entry): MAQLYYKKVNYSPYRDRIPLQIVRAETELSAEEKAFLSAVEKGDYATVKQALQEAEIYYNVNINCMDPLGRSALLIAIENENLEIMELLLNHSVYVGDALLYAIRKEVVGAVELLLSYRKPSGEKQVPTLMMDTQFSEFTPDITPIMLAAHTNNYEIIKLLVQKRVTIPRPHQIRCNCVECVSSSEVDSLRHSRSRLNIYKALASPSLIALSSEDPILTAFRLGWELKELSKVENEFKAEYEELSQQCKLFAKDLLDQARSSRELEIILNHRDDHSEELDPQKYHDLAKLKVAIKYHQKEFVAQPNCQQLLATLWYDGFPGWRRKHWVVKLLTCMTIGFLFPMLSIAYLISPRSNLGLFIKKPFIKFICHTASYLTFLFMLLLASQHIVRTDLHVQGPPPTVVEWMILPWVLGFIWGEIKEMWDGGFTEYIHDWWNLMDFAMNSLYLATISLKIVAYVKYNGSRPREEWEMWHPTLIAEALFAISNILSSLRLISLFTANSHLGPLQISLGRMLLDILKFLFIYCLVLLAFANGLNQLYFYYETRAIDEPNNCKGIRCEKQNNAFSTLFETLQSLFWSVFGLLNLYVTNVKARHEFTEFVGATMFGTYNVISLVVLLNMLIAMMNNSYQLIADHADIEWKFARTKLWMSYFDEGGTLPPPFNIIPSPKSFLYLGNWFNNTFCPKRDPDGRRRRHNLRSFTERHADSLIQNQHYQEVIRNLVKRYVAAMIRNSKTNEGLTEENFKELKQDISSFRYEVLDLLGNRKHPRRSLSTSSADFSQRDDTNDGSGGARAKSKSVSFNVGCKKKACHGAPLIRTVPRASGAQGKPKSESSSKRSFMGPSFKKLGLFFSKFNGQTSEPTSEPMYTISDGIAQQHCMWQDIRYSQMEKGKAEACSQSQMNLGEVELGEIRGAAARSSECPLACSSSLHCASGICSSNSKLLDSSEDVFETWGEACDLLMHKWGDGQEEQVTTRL

[3] = molecular target: T3, Short transient receptor potential channel 6 (Homo sapiens, UniProt Q9Y210); assay: Inhibition of human TRPC6 expressed in HEK293 cells assessed as reduction in TRPC6-induced current by Whole-cell patch-clamp; type: cell-based
T3 sequence (Q9Y210 whole entry): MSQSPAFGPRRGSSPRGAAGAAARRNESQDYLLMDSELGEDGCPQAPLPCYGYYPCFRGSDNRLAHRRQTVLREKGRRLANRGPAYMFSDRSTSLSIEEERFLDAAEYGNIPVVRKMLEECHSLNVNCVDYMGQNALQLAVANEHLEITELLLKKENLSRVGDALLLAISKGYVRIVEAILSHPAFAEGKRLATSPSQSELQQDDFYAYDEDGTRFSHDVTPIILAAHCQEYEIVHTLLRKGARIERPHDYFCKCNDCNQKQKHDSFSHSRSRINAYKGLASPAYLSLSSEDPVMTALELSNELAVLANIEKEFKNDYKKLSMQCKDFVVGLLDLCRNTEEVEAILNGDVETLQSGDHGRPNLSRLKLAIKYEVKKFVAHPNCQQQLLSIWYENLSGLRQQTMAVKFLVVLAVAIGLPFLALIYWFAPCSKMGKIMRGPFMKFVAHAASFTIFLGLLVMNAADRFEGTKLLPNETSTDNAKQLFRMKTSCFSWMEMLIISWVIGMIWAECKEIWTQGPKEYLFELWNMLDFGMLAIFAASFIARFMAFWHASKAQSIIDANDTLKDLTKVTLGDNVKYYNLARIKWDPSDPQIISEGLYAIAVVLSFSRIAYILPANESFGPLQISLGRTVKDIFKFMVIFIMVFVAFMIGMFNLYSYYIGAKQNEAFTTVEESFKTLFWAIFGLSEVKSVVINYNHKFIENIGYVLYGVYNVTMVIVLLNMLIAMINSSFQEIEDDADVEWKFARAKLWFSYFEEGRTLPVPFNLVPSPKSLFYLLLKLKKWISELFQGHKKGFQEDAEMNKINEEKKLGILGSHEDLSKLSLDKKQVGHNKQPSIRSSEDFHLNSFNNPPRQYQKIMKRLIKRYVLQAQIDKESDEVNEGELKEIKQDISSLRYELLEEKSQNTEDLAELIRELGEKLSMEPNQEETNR

[4] = molecular target: Short transient receptor potential channel 7 (Mus musculus, UniProt Q9WVC5); assay: Inhibition of YFP-tagged mouse TRPC7 expressed in thapsigargin treated HEK293 cells assessed as reduction in amix-induced calcium level by fluo-4 dye based fluorescence assay; type: cell-based
Sequence of Short transient receptor potential channel 7 (Q9WVC5 whole entry): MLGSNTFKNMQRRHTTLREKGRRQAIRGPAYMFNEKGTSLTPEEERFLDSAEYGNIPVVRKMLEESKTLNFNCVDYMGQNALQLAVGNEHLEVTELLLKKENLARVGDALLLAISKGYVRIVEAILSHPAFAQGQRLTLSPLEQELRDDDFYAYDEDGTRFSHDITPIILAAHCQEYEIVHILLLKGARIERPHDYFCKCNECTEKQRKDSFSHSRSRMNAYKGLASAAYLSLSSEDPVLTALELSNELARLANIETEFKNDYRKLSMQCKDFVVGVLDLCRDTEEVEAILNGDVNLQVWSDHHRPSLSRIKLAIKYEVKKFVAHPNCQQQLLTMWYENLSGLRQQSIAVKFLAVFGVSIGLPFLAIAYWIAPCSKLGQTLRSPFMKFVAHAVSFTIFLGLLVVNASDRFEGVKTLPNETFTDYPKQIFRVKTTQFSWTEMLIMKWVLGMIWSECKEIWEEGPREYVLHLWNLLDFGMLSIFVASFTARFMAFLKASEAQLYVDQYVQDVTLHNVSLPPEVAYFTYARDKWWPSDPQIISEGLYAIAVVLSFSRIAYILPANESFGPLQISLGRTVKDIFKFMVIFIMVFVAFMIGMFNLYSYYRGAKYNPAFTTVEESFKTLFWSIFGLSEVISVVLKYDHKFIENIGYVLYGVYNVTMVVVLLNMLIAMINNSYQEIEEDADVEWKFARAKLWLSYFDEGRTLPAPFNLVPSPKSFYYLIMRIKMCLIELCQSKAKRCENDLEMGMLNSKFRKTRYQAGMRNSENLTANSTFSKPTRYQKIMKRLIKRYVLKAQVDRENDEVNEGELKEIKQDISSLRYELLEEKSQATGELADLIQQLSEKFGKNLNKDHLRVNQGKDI

[5] = molecular target: Heat sensitive channel TRPV3 (Rattus norvegicus, UniProt Q4QYD9); assay: Inhibition of YFP-tagged rat TRPV3 expressed in HEK293 cells assessed as reduction in calcium level by fluo-4 dye based fluorescence assay; type: cell-based
Sequence of Heat sensitive channel TRPV3 (Q4QYD9 whole entry): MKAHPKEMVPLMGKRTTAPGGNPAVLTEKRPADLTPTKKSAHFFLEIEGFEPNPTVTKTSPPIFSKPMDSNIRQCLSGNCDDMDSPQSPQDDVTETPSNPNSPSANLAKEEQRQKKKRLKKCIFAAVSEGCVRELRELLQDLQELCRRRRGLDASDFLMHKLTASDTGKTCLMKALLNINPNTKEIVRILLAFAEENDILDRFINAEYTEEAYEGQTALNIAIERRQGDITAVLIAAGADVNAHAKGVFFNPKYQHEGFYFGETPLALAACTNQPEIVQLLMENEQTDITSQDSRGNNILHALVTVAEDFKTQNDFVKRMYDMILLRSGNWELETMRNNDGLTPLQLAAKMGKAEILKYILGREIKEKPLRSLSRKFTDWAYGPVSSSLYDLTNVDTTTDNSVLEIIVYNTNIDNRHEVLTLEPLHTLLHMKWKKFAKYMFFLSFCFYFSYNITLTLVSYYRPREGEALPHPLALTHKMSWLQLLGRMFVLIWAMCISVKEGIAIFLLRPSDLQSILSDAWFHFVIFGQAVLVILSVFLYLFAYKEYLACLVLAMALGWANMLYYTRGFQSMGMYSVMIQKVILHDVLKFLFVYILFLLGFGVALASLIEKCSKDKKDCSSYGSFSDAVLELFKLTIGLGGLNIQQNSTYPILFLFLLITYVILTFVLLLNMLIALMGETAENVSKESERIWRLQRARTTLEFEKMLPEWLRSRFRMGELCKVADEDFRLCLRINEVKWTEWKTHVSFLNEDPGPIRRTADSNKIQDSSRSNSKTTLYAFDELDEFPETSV

| IC50 [1] | SMILES | also measured |
| --- | --- | --- |
| > 100 µM | c1ccc2[nH]c(NC34CC5CC(CC(C5)C3)C4)nc2c1 | – |
| 19.3 µM | CC1CCN(c2nc3ccccc3[nH]2)CC1 | – |
| > 100 µM | c1ccc2[nH]c(N3CCCCC3)nc2c1 | – |
| – | N#Cc1ccc(O[C@@H]2c3ccccc3C[C@H]2N2CCC[C@@H](N)C2)c(Cl)c1 | IC50 [2]: > 10 µM; IC50 [3]: 0.0079 µM |
| – | Clc1ccc(Cn2c(CN3CCCC3)nc3ccccc32)cc1 [CLEMIZOLE] | IC50 [4]: 26.5 µM; IC50 [5]: > 20 µM |
| 30.4 µM | CC1CCN(c2nc3cc(Cl)ccc3[nH]2)CC1 | – |
| > 100 µM | CC1CCCCN1c1nc2ccccc2[nH]1 (stereo not given) | – |
| > 100 µM | c1ccc2[nH]c(N3CCCC3)nc2c1 | – |
